# Assay results taken from patent publication US20200237742A1, “Serdexmethylphenidate Conjugates, Compositions And Methods Of Use Thereof” (priority 2018, published 2020).
# Counter-ions that a name gives are not always drawn.
# System: healthy, nondependent, recreational stimulant users with intranasal insufflation experience
# Assay: Intranasal study, treatment-emergent adverse events (Table 54)
# Protocol: The study consisted of a Screening Period, an in-clinic Drug Discrimination Phase, a Treatment Phase, and a Follow-Up Visit.
# All subjects were required to fast for at least 8 hours prior to each dose of study drug until approximately 4 hours after each dose. Abuse potential measures and pharmacokinetic samples were collected at different times after the administration of study drug. Subjects who successfully completed the Drug Discrimination Phase and who qualified for the Treatment Phase remained as inpatients to enter the Treatment Phase.
# [1] = intranasal, d-MPH HCl 40 mg, SDX Cl 80 mg, N = 46 each
smiles,measurement,setting,value
"COC(=O)[C@H](c1ccccc1)[C@H]1CCCCN1 [d-methylphenidate hydrochloride, d-threo-methylphenidate hydrochloride]","typical stimulant-related adverse events (euphoric mood, hypervigilance, cardiac palpitations and tachycardia)",intranasal d-MPH HCl compared to intranasal SDX Cl,occurred more often
same,"Abdominal distension, subjects with event",[1],0 n (%)
same,"Abdominal pain, number of occurrences",[1],1 E
same,"Abdominal pain, subjects with event",[1],1 (2.2%) n (%)
same,"Agitation, subjects with event",[1],0 n (%)
same,"Anxiety, number of occurrences",[1],2 E
same,"Anxiety, subjects with event",[1],2 (4.3%) n (%)
same,"Any TEAE, number of occurrences",[1],148 E
same,"Any TEAE, subjects with event",[1],46 (100.0%) n (%)
same,"Arthralgia, subjects with event",[1],0 n (%)
same,"Asthenia, number of occurrences",[1],1 E
same,"Asthenia, subjects with event",[1],1 (2.2%) n (%)
same,"Back pain, number of occurrences",[1],1 E
same,"Back pain, subjects with event",[1],1 (2.2%) n (%)
same,"Blood pressure diastolic increased, number of occurrences",[1],1 E
same,"Blood pressure diastolic increased, subjects with event",[1],1 (2.2%) n (%)
same,"Bruxism, number of occurrences",[1],2 E
same,"Bruxism, subjects with event",[1],2 (4.3%) n (%)
same,"Cardiac disorders, number of occurrences",[1],29 E
same,"Cardiac disorders, subjects with event",[1],19 (41.3%) n (%)
same,"Catheter site haematoma, subjects with event",[1],0 n (%)
same,"Catheter site swelling, subjects with event",[1],0 n (%)
same,"Change in sustained attention, number of occurrences",[1],1 E
same,"Change in sustained attention, subjects with event",[1],1 (2.2%) n (%)
same,"Chest discomfort, number of occurrences",[1],1 E
same,"Chest discomfort, subjects with event",[1],1 (2.2%) n (%)
same,"Chest pain, subjects with event",[1],0 n (%)
same,"Claustrophobia, subjects with event",[1],0 n (%)
same,"Cough, subjects with event",[1],0 n (%)
same,"Decreased appetite, number of occurrences",[1],3 E
same,"Decreased appetite, subjects with event",[1],3 (6.5%) n (%)
same,"Defaecation urgency, number of occurrences",[1],1 E
same,"Defaecation urgency, subjects with event",[1],1 (2.2%) n (%)
same,"Diarrhoea, number of occurrences",[1],1 E
same,"Diarrhoea, subjects with event",[1],1 (2.2%) n (%)
same,"Disturbance in attention, number of occurrences",[1],1 E
same,"Disturbance in attention, subjects with event",[1],1 (2.2%) n (%)
same,"Dizziness, subjects with event",[1],0 n (%)
same,"Dry mouth, number of occurrences",[1],6 E
same,"Dry mouth, subjects with event",[1],6 (13.0%) n (%)
same,"Dry throat, number of occurrences",[1],3 E
same,"Dry throat, subjects with event",[1],3 (6.5%) n (%)
same,"Dysgeusia, subjects with event",[1],0 n (%)
same,"Dysmenorrhoea (menstrual cramps), number of occurrences",[1],1 E
same,"Dysmenorrhoea (menstrual cramps), subjects with event",[1],1 (2.2%) n (%)
same,"Dyspepsia, subjects with event",[1],0 n (%)
same,"Ecchymosis (skin discoloration), subjects with event",[1],0 n (%)
same,"Energy increased, number of occurrences",[1],2 E
same,"Energy increased, subjects with event",[1],2 (4.3%) n (%)
same,"Epistaxis (nosebleed), subjects with event",[1],0 n (%)
same,"Euphoric mood, number of occurrences",[1],29 E
same,"Euphoric mood, subjects with event",[1],29 (63.0%) n (%)
same,"Eye disorders, number of occurrences",[1],3 E
same,"Eye disorders, subjects with event",[1],3 (6.5%) n (%)
same,"Eye irritation, number of occurrences",[1],1 E
same,"Eye irritation, subjects with event",[1],1 (2.2%) n (%)
same,"Eye pain, subjects with event",[1],0 n (%)
same,"Fatigue, number of occurrences",[1],3 E
same,"Fatigue, subjects with event",[1],3 (6.5%) n (%)
same,"Feeling hot, number of occurrences",[1],3 E
same,"Feeling hot, subjects with event",[1],3 (6.5%) n (%)
same,"Feeling of relaxation, subjects with event",[1],0 n (%)
same,"Flushing, number of occurrences",[1],1 E
same,"Flushing, subjects with event",[1],1 (2.2%) n (%)
same,"Gastrointestinal disorders, number of occurrences",[1],10 E
same,"Gastrointestinal disorders, subjects with event",[1],9 (19.6%) n (%)
same,"General disorders and administration site conditions, number of occurrences",[1],13 E
same,"General disorders and administration site conditions, subjects with event",[1],12 (26.1%) n (%)
same,"Haematoma, number of occurrences",[1],1 E
same,"Haematoma, subjects with event",[1],1 (2.2%) n (%)
same,"Head discomfort, subjects with event",[1],0 n (%)
same,"Headache, number of occurrences",[1],7 E
same,"Headache, subjects with event",[1],7 (15.2%) n (%)
same,"Hyperhidrosis, number of occurrences",[1],3 E
same,"Hyperhidrosis, subjects with event",[1],3 (6.5%) n (%)
same,"Hypervigilance, number of occurrences",[1],16 E
same,"Hypervigilance, subjects with event",[1],16 (34.8%) n (%)
same,"Hypopnoea (shallow breathing), number of occurrences",[1],1 E
same,"Hypopnoea (shallow breathing), subjects with event",[1],1 (2.2%) n (%)
same,"Infections and infestations, subjects with event",[1],0 n (%)
same,"Investigations, number of occurrences",[1],1 E
same,"Investigations, subjects with event",[1],1 (2.2%) n (%)
same,"Irritability, subjects with event",[1],0 n (%)
same,"Lacrimation increased, subjects with event",[1],0 n (%)
same,"Metabolism and nutrition disorders, number of occurrences",[1],3 E
same,"Metabolism and nutrition disorders, subjects with event",[1],3 (6.5%) n (%)
same,"Muscle tightness, number of occurrences",[1],2 E
same,"Muscle tightness, subjects with event",[1],2 (4.3%) n (%)
same,"Muscle twitching, number of occurrences",[1],1 E
same,"Muscle twitching, subjects with event",[1],1 (2.2%) n (%)
same,"Musculoskeletal and connective tissue disorders, number of occurrences",[1],5 E
same,"Musculoskeletal and connective tissue disorders, subjects with event",[1],4 (8.7%) n (%)
same,"Nasal congestion, number of occurrences",[1],1 E
same,"Nasal congestion, subjects with event",[1],1 (2.2%) n (%)
same,"Nasal discomfort, number of occurrences",[1],3 E
same,"Nasal discomfort, subjects with event",[1],3 (6.5%) n (%)
same,"Nasal dryness, subjects with event",[1],0 n (%)
same,"Nausea, number of occurrences",[1],1 E
same,"Nausea, subjects with event",[1],1 (2.2%) n (%)
same,"Neck pain, number of occurrences",[1],1 E
same,"Neck pain, subjects with event",[1],1 (2.2%) n (%)
same,"Nervous system disorders, number of occurrences",[1],10 E
same,"Nervous system disorders, subjects with event",[1],9 (19.6%) n (%)
same,"Obsessive-compulsive disorder, number of occurrences",[1],1 E
same,"Obsessive-compulsive disorder, subjects with event",[1],1 (2.2%) n (%)
same,"Palpitations, number of occurrences",[1],11 E
same,"Palpitations, subjects with event",[1],11 (23.9%) n (%)
same,"Peripheral swelling, number of occurrences",[1],1 E
same,"Peripheral swelling, subjects with event",[1],1 (2.2%) n (%)
same,"Pharyngeal hypoaesthesia (numbness of throat), number of occurrences",[1],1 E
same,"Pharyngeal hypoaesthesia (numbness of throat), subjects with event",[1],1 (2.2%) n (%)
same,"Pharyngitis, subjects with event",[1],0 n (%)
same,"Phlebitis superficial, subjects with event",[1],0 n (%)
same,"Phonophobia (fear of loud noises), number of occurrences",[1],1 E
same,"Phonophobia (fear of loud noises), subjects with event",[1],1 (2.2%) n (%)
same,"Photophobia, number of occurrences",[1],1 E
same,"Photophobia, subjects with event",[1],1 (2.2%) n (%)
same,"Psychiatric disorders, number of occurrences",[1],54 E
same,"Psychiatric disorders, subjects with event",[1],41 (89.1%) n (%)
same,"Pyrexia, subjects with event",[1],0 n (%)
same,"Reproductive system and breast disorders, number of occurrences",[1],2 E
same,"Reproductive system and breast disorders, subjects with event",[1],2 (4.3%) n (%)
same,"Respiratory, thoracic and mediastinal disorders, number of occurrences",[1],12 E
same,"Respiratory, thoracic and mediastinal disorders, subjects with event",[1],10 (21.7%) n (%)
same,"Restlessness, number of occurrences",[1],2 E
same,"Restlessness, subjects with event",[1],2 (4.3%) n (%)
same,"Rhinorrhoea (runny nose), subjects with event",[1],0 n (%)
same,"Sinus tachycardia, number of occurrences",[1],7 E
same,"Sinus tachycardia, subjects with event",[1],7 (15.2%) n (%)
same,"Skin and subcutaneous tissue disorders, number of occurrences",[1],4 E
same,"Skin and subcutaneous tissue disorders, subjects with event",[1],4 (8.7%) n (%)
same,"Skin erosion, number of occurrences",[1],1 E
same,"Skin erosion, subjects with event",[1],1 (2.2%) n (%)
same,"Sneezing, subjects with event",[1],0 n (%)
same,"Somnolence, number of occurrences",[1],2 E
same,"Somnolence, subjects with event",[1],2 (4.3%) n (%)
same,"Tachycardia, number of occurrences",[1],9 E
same,"Tachycardia, subjects with event",[1],8 (17.4%) n (%)
same,"Testis discomfort, number of occurrences",[1],1 E
same,"Testis discomfort, subjects with event",[1],1 (2.2%) n (%)
same,"Throat irritation, number of occurrences",[1],3 E
same,"Throat irritation, subjects with event",[1],3 (6.5%) n (%)
same,"Upper-airway cough syndrome, subjects with event",[1],0 n (%)
same,"Vascular disorders, number of occurrences",[1],2 E
same,"Vascular disorders, subjects with event",[1],2 (4.3%) n (%)
same,"Ventricular extrasystoles, number of occurrences",[1],2 E
same,"Ventricular extrasystoles, subjects with event",[1],2 (4.3%) n (%)
same,"Vessel puncture site bruise, number of occurrences",[1],1 E
same,"Vessel puncture site bruise, subjects with event",[1],1 (2.2%) n (%)
same,"Vessel puncture site pain, number of occurrences",[1],1 E
same,"Vessel puncture site pain, subjects with event",[1],1 (2.2%) n (%)
same,"Visual impairment, number of occurrences",[1],1 E
same,"Visual impairment, subjects with event",[1],1 (2.2%) n (%)
same,"Vomiting, subjects with event",[1],0 n (%)
